Source: patent US7326540B2, “Methods for identifying compounds that modulate stabilization of secretase-associated proteins” (priority 2003, dated 2008)

Key:
[1] = tested on: E-cadherin; test: E-cadherin proteolysis in A431 cells during STS-induced apoptosis (Western blot, C36 antibody); type: cell-based, human; details: then STS 6 hours
Protocol: FIG. 11 provides digitized images and graphs showing that apoptosis enhances γ-secretase activity and levels of γ-secretase complex proteins. FIG. 11a: Apoptosis was induced in CAB, CHO-CC99/PS1 and CHO-APP 751/PS1 by STS treatment for 6 hours with or without zVAD (100 μM). Secreted Aβ1−total was measured by ELISA. […] Each bar represents the mean and SD of quadruplicate determinations. FIG. 11b: Western blot analysis with the antibody, A8717, detected endogenous APP-FL and overexpressed C99 in CHO-CC99/PS1cells, while overexpressed APP-FL and C83 were detected in CHO-APP751/PS1 cells. FIG. 11c: A431 human epithelial cells were pre-incubated for 30 min in the absence (−) or presence (+) of zVAD-FMK (100 μM), L-685,458 (0.5 μM) or GM6001 (2.5 μM). Cells were then treated with STS for 6 hours to induce apoptosis, and cell extracts were probed with anti-E-cadherin C36 antibody. FIG. 11d: Protein levels of γ-secretase complex components were monitored by Western blotting employing the anti-nicastrin, Ab14, PNT2, H2D2 antibodies. Densitometry analysis was performed using NIH image software. Each bar represents the mean and SEM of at least three experiments. FIG. 11e: Nicastrin was transiently transfected in the A431 cells. Western blot analysis for E-cadherin and γ-secretase complex component was performed as in FIG. 11c and FIG. 11d β-tubulin was used as loading control.
To confirm that apoptosis/caspase activation increases γ-secretase activity, we next examined the proteolysis of E-cadherin, another γ-secretase substrate (Marambaud, P. et al., Embo J21, 1948-56 (2002)) during apoptosis. We confirmed that caspase activation enhanced the production of E-Cad/CTF1 (Steinhusen, U. et al., J Biol Chem 276, 4972-80 (2001)), E-Cad/CTF2 (Marambaud, P. et al., 2002) (˜2- and 3-fold increase by densitometry analysis, respectively), and generated E-Cad/CTF3 (Marambaud, P. et al., 2002) (FIG. 11c). […]

[2] = tested on: Aβ production in CHO cells overexpressing APP751 and PS1 WT; test: Secreted Aβ ELISA in CHO cells overexpressing APP751 and PS1 during induced apoptosis; type: cell-based, Chinese Hamster; details: etoposide 100 μg/mL, 12 hrs
Protocol: We examined Aβ generation induced by apoptosis in CHO cell lines. We used CHO cell lines stably overexpressing both APP751 and PS1 WT. For the induction of apoptosis, we used 1 μM staurosporine (STS) in serum free media. Secreted Aβ was measured in the conditioned media of cells treated with STS for 6 hrs using a sensitive ELISA assay [courtesy of Dr. Dennis Selkoe; M. S. Wolfe et al., Nature 398, 513-7 (1999)].
Treatment with either STS for 6 hrs or etoposide for 12 hrs induced from 10 to 20% of cell death assayed by MTT assay, which is a colorimetric short-term suspension culture assay in which the yellow tetrazolium salt (MTT) is reduced in metabolically active cells to form insoluble purple formazan crystals, which are solubilized by the addition of a detergent.
Chinese Hamster Ovary (CHO) cells expressing APP751 and BACE (CAB), CHO cells expressing full-length APP and wild-type PS1 (CHO-APP751/PS1) or expressing C99 and wild-type PS1 (CHO-CC99/PS1), H4 human neuroglioma cells expressing APP751 (H4-APP751), mouse embryonic fibroblast (MEF), embryonic stem (ES) cells, and human epithelial A431 cells were grown as described previously (Marambaud, P. et al., Embo J 21, 1948-56 (2002); Cai, H. et al., Nat Neurosci 4, 233-4 (2001); Sato, N. et al., Nat Cell Biol 2, 863-70 (2000); Puglielli, L., Ellis, B. C., Saunders, A. J. & Kovacs, D. M., J Biol Chem 278, 19777-83 (2003); Wolfe, M. S. et al., Nature 398, 513-7 (1999)). For the induction of apoptosis, we used staurosporine or etoposide (Calbiochem (EMD Biosciences, San Diego, Calif.)). For Aβ measurements, cells were seeded at the density of 0.5×10^6 cells per well in 6 well plates. After 48 hours, cells were treated with either STS (1 μM) for 6 hours. […] For time-course experiments, cells were seeded at the density of 2×10^6 cells per 100 mm dish and treated with STS (1 μM) or etoposide (100 μg/mL). At different time points (0, 3, 6, 9, 12 and 24 hours), the cells were scraped, centrifuged and then lysed in buffer containing 1% NP40. Western blot analysis was performed as previously described (Tesco, G., Koh, Y. H. & Tanzi, R. E., J Biol Chem 278, 46074-80 (2003)). Densitometry analysis was performed on a Macintosh computer using the public domain NIH Image program (developed at the U.S. National Institutes of Health and available on the Internet at http://rsb.info.nih.gov/nih-image/).
Secreted Aβ1-total was measured in the conditioned media of untreated cells or of cells treated with STS or STS plus zVAD using a sensitive ELISA (Wolfe, M. S. et al., Nature 398, 513-7 (1999). At least three different experiments were carried out and each experiment was performed at least in triplicate.

[3] = tested on: BACE; test: BACE protein levels by Western blot and densitometry in CAB cells; type: cell-based, Chinese Hamster; details: etoposide (ETO) treatment, CAB cells
Protocol: Chinese Hamster Ovary (CHO) cells expressing APP751 and BACE (CAB), CHO cells expressing full-length APP and wild-type PS1 (CHO-APP751/PS1) or expressing C99 and wild-type PS1 (CHO-CC99/PS1), H4 human neuroglioma cells expressing APP751 (H4-APP751), mouse embryonic fibroblast (MEF), embryonic stem (ES) cells, and human epithelial A431 cells were grown as described previously (Marambaud, P. et al., Embo J 21, 1948-56 (2002); Cai, H. et al., Nat Neurosci 4, 233-4 (2001); Sato, N. et al., Nat Cell Biol 2, 863-70 (2000); Puglielli, L., Ellis, B. C., Saunders, A. J. & Kovacs, D. M., J Biol Chem 278, 19777-83 (2003); Wolfe, M. S. et al., Nature 398, 513-7 (1999)). For the induction of apoptosis, we used staurosporine or etoposide (Calbiochem (EMD Biosciences, San Diego, Calif.)). For Aβ measurements, cells were seeded at the density of 0.5×10^6 cells per well in 6 well plates. After 48 hours, cells were treated with either STS (1 μM) for 6 hours. In order to inhibit caspase activation a sister plate of cells was pre-treated with zVAD ([…], Enzyme Systems Products) for 1 hour before STS treatment. For time-course experiments, cells were seeded at the density of 2×10^6 cells per 100 mm dish and treated with STS (1 μM) or etoposide (100 μg/mL). At different time points (0, 3, 6, 9, 12 and 24 hours), the cells were scraped, centrifuged and then lysed in buffer containing 1% NP40. Western blot analysis was performed as previously described (Tesco, G., Koh, Y. H. & Tanzi, R. E., J Biol Chem 278, 46074-80 (2003)). Densitometry analysis was performed on a Macintosh computer using the public domain NIH Image program (developed at the U.S. National Institutes of Health and available on the Internet at http://rsb.info.nih.gov/nih-image/).
It has been previously shown that overexpression of BACE enhances β-secretase cleavage of APP leading to the accumulation of intracellular C99 (Vassar, R. et al., Science 286, 735-41 (1999)). We first asked whether apoptosis/caspase activation leads to accumulation of C99 owing to increased β-secretase activity.

[4] = tested on: proteasome; test: Proteasome inhibition: BACE and nicastrin protein levels by Western blot in H4 cells; type: cell-based, human
Protocol: Densitometric analysis was performed with NIH image and reported in bar graphs (FIG. 8B).

Compound: CNC(=O)[C@H](Cc1c[nH]c2ccccc12)NC(=O)[C@@H](CC(=O)NO)CC(C)C [GM6001]
- generation of E-Cad/CTF1 ([1]; GM6001 2.5 μM pre-incubated 30 min): inhibited

Compound: COc1cc([C@@H]2c3cc4c(cc3[C@@H](O[C@@H]3O[C@@H]5CO[C@@H](C)O[C@H]5[C@H](O)[C@H]3O)[C@H]3COC(=O)[C@H]23)OCO4)cc(OC)c1O [etoposide]
- Secreted Aβ1-42 [2]: increased
- Secreted Aβtotal [2]: increased
- BACE protein levels [3]: increase

Compound: CC(C)C[C@H](NC(=O)[C@H](Cc1ccccc1)C[C@@H](O)[C@H](Cc1ccccc1)NC(=O)OC(C)(C)C)C(=O)N[C@@H](Cc1ccccc1)C(N)=O [L-685,458]
- generation of E-Cad/CTF2 ([1]; L-685,458 0.5 μM pre-incubated 30 min): inhibited

Compound: CC(=O)N[C@@H](CSC(=O)[C@]1([C@@H](O)C(C)C)NC(=O)[C@H](C)[C@@H]1O)C(=O)O [Lactacystin, lactacystin]
- protein levels of nicastrin ([4]; Lactacystin 10 μM for 24 hrs, medium containing 10% serum): increased
- BACE full length and BACE-CTF levels ([4]; Lactacystin treatment, H4 cells): did not affect
